# Experimental data from ChEMBL document CHEMBL1124371, “A novel solution-stable, water-soluble prodrug type for drugs containing a hydroxyl or an NH-acidic group” (J Med Chem, 1989).
# Organism: Homo sapiens
# Assay: Ester prodrugs: T1/2 in human plasma
# Assay type: ADME
# Conditions: not given
row,T1/2 [min],Structure (SMILES)
1,28,CCN(CC)Cc1cccc(C(=O)OCn2c(=O)oc3ccc(Cl)cc32)c1

# Same assay, conditions: human, in vitro
row,Structure (SMILES),T1/2 [min]
1,CN1CCN(Cc2cccc(C(=O)OCC(=O)[C@@]3(O)CCC4C5CCC6=CC(=O)CCC6(C)C5C(O)CC43C)c2)CC1 (stereo not given in full),15
2,O=C(OCn1ncc2c(=O)[nH]cnc21)c1cccc(CN2CCOCC2)c1,8.5
3,Cc1ncc([N+](=O)[O-])n1CCOC(=O)c1ccc(CN2CCOCC2)cc1,0.4
4,Nc1nc(O)c2ncn(COCCOC(=O)c3ccc(CN4CCOCC4)cc3)c2n1,3.7
5,CN1CCN(Cc2cccc(C(=O)OCn3ncc4c(=O)[nH]cnc43)c2)CC1,0.5
6,C[C@H]1CC2C(C(O)CC3(C)C2CC[C@]3(O)C(=O)COC(=O)c2cccc(CN3CCN(C)CC3)c2)C2(C)C=CC(=O)C=C12 (stereo not given in full),29
7,CN1CCN(Cc2ccc(C(=O)OCn3ncc4c(=O)[nH]cnc43)cc2)CC1,11
8,Cn1c(=O)c2c(ncn2COC(=O)c2cccc(CN3CCOCC3)c2)n(C)c1=O,2.8
9,CN1CCN(Cc2cccc(C(=O)OCC(=O)[C@@]3(O)CCC4C5CCC6=CC(=O)C=CC6(C)C5C(O)CC43C)c2)CC1 (stereo not given in full),18
10,CN1CCN(Cc2ccc(C(=O)OCC(=O)[C@@]3(O)CCC4C5CCC6=CC(=O)CCC6(C)C5C(O)CC43C)cc2)CC1 (stereo not given in full),147
11,CC12CCC(=O)C=C1CCC1C2C(O)CC2(C)C1CC[C@]2(O)C(=O)COC(=O)c1cccc(CN2CCOCC2)c1 (stereo not given in full),62
12,CC12CCC(=O)C=C1CCC1C2C(O)CC2(C)C1CC[C@]2(O)C(=O)COC(=O)c1ccc(CN2CCOCC2)cc1 (stereo not given in full),92
13,CN(C)Cc1ccc(C(=O)OCn2ncc3c(=O)[nH]cnc32)cc1,9.4
14,O=C(OCn1ncc2c(=O)[nH]cnc21)c1cccc(Cn2ccnc2)c1,3.6
15,CN1CCN(Cc2cccc(C(=O)OCn3cnc4c3c(=O)n(C)c(=O)n4C)c2)CC1,0.4
16,Cc1ncc([N+](=O)[O-])n1CCOC(=O)c1ccc(CN2CCN(C)CC2)cc1,2.4
17,CN1CCN(Cc2cccc(C(=O)OCN3C(=O)NC(c4ccccc4)(c4ccccc4)C3=O)c2)CC1,7
18,O=C(OCn1ncc2c(=O)[nH]cnc21)c1ccc(CN2CCOCC2)cc1,1.9
19,CC(=O)Nc1ccc(OC(=O)c2ccc(CN3CCN(C)CC3)cc2)cc1,487

# Continued, values first:
row,T1/2 [min],Structure (SMILES)
1,18,C[C@H]1CC2C(C(O)CC3(C)C2CC[C@]3(O)C(=O)COC(=O)c2cccc(CN(C)CCN(C)C)c2)C2(C)C=CC(=O)C=C12 (stereo not given in full)
2,8,CCN(CC)CCN(CC)Cc1cccc(C(=O)OCC(=O)[C@@]2(O)CCC3C4CCC5=CC(=O)CCC5(C)C4C(O)CC32C)c1 (stereo not given in full)
3,34,CCN(CC)Cc1cccc(C(=O)OCC(=O)[C@@]2(O)CCC3C4CCC5=CC(=O)CCC5(C)C4C(O)CC32C)c1 (stereo not given in full)
4,0.6,Cc1ncc([N+](=O)[O-])n1CCOC(=O)c1cccc(CN2CCN(C)CC2)c1
5,4.7,Cc1ncc([N+](=O)[O-])n1CCOC(=O)c1ccc(CN(C)C)cc1
6,107,CCN(CC)Cc1ccc(C(=O)OCC(=O)[C@@]2(O)CCC3C4CCC5=CC(=O)CCC5(C)C4C(O)CC32C)cc1 (stereo not given in full)
7,5,CN1CCN(Cc2cccc(C(=O)OCC(NC(=O)C(Cl)Cl)C(O)c3ccc([N+](=O)[O-])cc3)c2)CC1 (stereo not given)
8,56,CC(=O)Nc1ccc(OC(=O)c2cccc(CN3CCOCC3)c2)cc1
9,5,Cc1ncc([N+](=O)[O-])n1CCOC(=O)c1cccc(CN2CCOCC2)c1
10,20,CCN(CC)Cc1cccc(C(=O)OCN2C(=O)NC(c3ccccc3)(c3ccccc3)C2=O)c1
11,0.4,CCN(CC)Cc1cccc(C(=O)OCn2cnc3c2c(=O)n(C)c(=O)n3C)c1
12,15,CCN(CC)CCN(CC)Cc1cccc(C(=O)Oc2ccc(NC(C)=O)cc2)c1
13,8,CCN(CC)Cc1cccc(C(=O)OCC(NC(=O)C(Cl)Cl)C(O)c2ccc([N+](=O)[O-])cc2)c1 (stereo not given)
14,25,CNCc1cccc(C(=O)OCC(=O)[C@@]2(O)CCC3C4CCC5=CC(=O)CCC5(C)C4C(O)CC32C)c1 (stereo not given in full)
15,87,CC(=O)Nc1ccc(OC(=O)c2ccc(CN(C)C)cc2)cc1
16,38,CCCNCc1cccc(C(=O)OCC(=O)[C@@]2(O)CCC3C4CCC5=CC(=O)CCC5(C)C4C(O)CC32C)c1 (stereo not given in full)
17,27,CC(=O)Nc1ccc(OC(=O)c2cccc(CN3CCN(C)CC3)c2)cc1
18,0.9,Cn1c(=O)c2c(ncn2COC(=O)c2cccc(Cn3ccnc3)c2)n(C)c1=O
19,0.9,CCN(CC)CCN(CC)Cc1cccc(C(=O)OCC(NC(=O)C(Cl)Cl)C(O)c2ccc([N+](=O)[O-])cc2)c1 (stereo not given)
20,55,O=C(OCC(NC(=O)C(Cl)Cl)C(O)c1ccc([N+](=O)[O-])cc1)c1cccc(CN2CCOCC2)c1 (stereo not given)
